This note sets out measurements from patent publication US9169259B2, “Imidazopyridazine compounds” (Hoffmann-La Roche Inc., priority 2011, dated 2015).

pIC50: −log10 of the molar value. Structures can show the parent of a compound that is named as a salt.

For this assay, the target named is recombinant human SYK360-635 (Homo sapiens (Human), UniProt P43405). The experiment in a line: SYK kinase assay (33P ATP filtration, IC50 of SYK inhibition). The note with it: truncated SYK aa 360-635 0.5 nM, ATP 20 μM, peptide 5 μM, 30° C. 15 min; read-out: ENZYME_FILTRATION_IC50. Type of assay: biochemical. As to the method:
Determination of IC50 of Spleen Tyrosine Kinase (SYK) Inhibition:
SYK kinase assay is a standard kinase assay adapted to a 96 well plate format. This assay is performed in 96-well format for IC50 determination with […] which represented 10 half log dilutions and a 40 μL reaction volume. The assay measures the incorporation of radiolabeled ^33P γATP into an N-terminally biotinylated peptide substrate, derived from naturally occurring phosphoacceptor consensus sequence (Biotin-11aa DY*E). Phosphorylated products were detected upon termination of reactions with EDTA and the addition of Streptavidin coated beads.
Assay plates: 96-well MultiScreen 0.65 um filter plates (Millipore Cat. No.: MADVNOB10)
final concentration: 50 mM HEPES pH7.5
BSA: Bovine Serum Albumin Fraction V, fatty acid free (Roche Diagnostics GmbH, Cat. No. 9100221) diluted to a final concentration of 0.1%
Assay Dilution Buffer (ADB): 50 mM HEPES, 0.1 mM EGTA, 0.1 mM Na Vanadate, 0.1 mM β-glycerophosphate, 10 mM MgCl2, 1 mM DTT, 0.1% BSA, pH 7.5
Bead wash buffer: 10 g/L PBS (Phosphate buffered saline) with 2M NaCl+1% phosphoric acid.
DMSO and the mixture was incubated for 10 min at RT.
The kinase reaction was initiated by the addition of 10 μL 4× substrate cocktail containing the DYE peptide substrate [0 or 5 μM], ATP [20 μM] and ^33PγATP [2 μCi/r×n]. After incubation at 30° C. for 15 min, the reaction was terminated by the transfer of 25 μL of the reaction sample to a 96 well 0.65 μm Millipore MADVNOB membrane/plate containing 200 μL 5 mM EDTA and 20% Streptavidine coated beads in PBS.
After the last wash membrane/plates were transferred to an adaptor plate, heat dried for 15 min at 60° C., and 50 μL scintillation cocktail was added to each well and 4 h later the amount of radioactivity was counted in a top counter.
For `FC(F)(F)c1cccc(Nc2cc(-c3ccccc3)nn3ccnc23)n1` [Example I-1, (6-Phenyl-imidazo[1,2-b]pyridazin-8-yl)-(6-trifluoromethyl-pyridin-2-yl)-amine], the pIC50 was under 5.00. Regarding `CCc1ccc(Nc2cc(-c3ccccc3)nn3ccnc23)nc1` [Example I-2, (5-Ethyl-pyridin-2-yl)-(6-phenyl-imidazo[1,2-b]pyridazin-8-yl)-amine], the pIC50 was 6.73. As for `COC(=O)c1cccc(-c2cc(Nc3cccc(N4CCCC4C)n3)c3nccn3n2)c1` (centres unmarked) [Example I-8, 3-{8-[6-(2-Methyl-pyrrolidin-1-yl)-pyridin-2-ylamino]-imidazo[1,2-b]pyridazin-6-yl}-benzoic acid methyl ester], the pIC50 is 6.32. For `CC1CCCN1c1cccc(Nc2cc(-c3cccc(C(=O)Nc4ccc(C(=O)O)cc4)c3)nn3ccnc23)n1` (centres unmarked) [Example I-10, 4-(3-{8-[6-(2-Methyl-pyrrolidin-1-yl)-pyridin-2-ylamino]-imidazo[1,2-b]pyridazin-6-yl}-benzoylamino)-benzoic acid] the value was 8.78; for `COC(=O)c1ccc(-c2cc(Nc3cccc(N4CCCC4C)n3)c3nccn3n2)cc1` (centres unmarked) [Example I-14, 4-{8-[6-(2-Methyl-pyrrolidin-1-yl)-pyridin-2-ylamino]-imidazo[1,2-b]pyridazin-6-yl}-benzoic acid methyl ester], 6.43; for `CC1CCCN1c1cccc(Nc2cc(-c3ccc(C(=O)O)cc3)nn3ccnc23)n1` (centres unmarked) [Example I-15, 4-{8-[6-(2-Methyl-pyrrolidin-1-yl)-pyridin-2-ylamino]-imidazo[1,2-b]pyridazin-6-yl}-benzoic acid], 7.07. `CC1CCCN1c1cccc(Nc2cc(-c3ccc(C(=O)NCCc4ccncc4)cc3)nn3ccnc23)n1` (centres unmarked) [Example I-16, 4-{8-[6-(2-Methyl-pyrrolidin-1-yl)-pyridin-2-ylamino]-imidazo[1,2-b]pyridazin-6-yl}-N-(2-pyridin-4-yl-ethyl)-benzamide]: the pIC50 was 7.06. With `CC1CCCN1c1cccc(Nc2cc(-c3ccc4c(c3)OCO4)nn3ccnc23)n1` (centres unmarked) [Example I-18, (6-Benzo[1,3]dioxol-5-yl-imidazo[1,2-b]pyridazin-8-yl)-[6-(2-methyl-pyrrolidin-1-yl)-pyridin-2-yl]-amine], the pIC50 was 6.94.

Take `CC1CCCN1c1cccc(Nc2cc(-c3ccc4cn[nH]c4c3)nn3ccnc23)n1` (centres unmarked) [Example I-19, [6-(1H-Indazol-6-yl)-imidazo[1,2-b]pyridazin-8-yl]-[6-(2-methyl-pyrrolidin-1-yl)-pyridin-2-yl]-amine]: the pIC50 was 7.12. Take `O=C(O)c1cccc(-c2cc(Nc3cccc(N4CCCC4CO)n3)c3nccn3n2)c1` (centres unmarked) [Example I-20, 3-{8-[6-(2-Hydroxymethyl-pyrrolidin-1-yl)-pyridin-2-ylamino]-imidazo[1,2-b]pyridazin-6-yl}-benzoic acid]: the pIC50 is 6.59.

`O=C(O)c1cccc(-c2cc(Nc3cccc(N4CCCC4)n3)c3nccn3n2)c1` [Example I-22, 3-[8-(6-Pyrrolidin-1-yl-pyridin-2-ylamino)-imidazo[1,2-b]pyridazin-6-yl]-benzoic acid hydrochloride]: the pIC50 is 6.36. For `O=C(O)c1cccc(-c2cc(Nc3cccc(N4CC5CC5C4)n3)c3nccn3n2)c1` (centres unmarked) [Example I-23, 3-{8-[6-(3-Aza-bicyclo[3.1.0]hex-3-yl)-pyridin-2-ylamino]-imidazo[1,2-b]pyridazin-6-yl}-benzoic acid] the value was 6.35. For `Cc1c(C(=O)O)cccc1-c1cc(Nc2cccc(N3CCC[C@@H]3C)n2)c2nccn2n1` [Example I-24, 2-Methyl-3-{8-[6-((S)-2-methyl-pyrrolidin-1-yl)-pyridin-2-ylamino]-imidazo[1,2-b]pyridazin-6-yl}-benzoic acid] the value was 6.71; for `CC1CCN(c2cccc(Nc3cc(-c4ccccc4)nn4ccnc34)n2)C1` (centres unmarked) [Example I-25, [6-(3-Methyl-pyrrolidin-1-yl)-pyridin-2-yl]-(6-phenyl-imidazo[1,2-b]pyridazin-8-yl)-amine], 7.05. `COc1ccc(Nc2cc(-c3ccc(C(=O)O)cc3)nn3ccnc23)nc1OC` [Example I-26, 4-[8-(5,6-Dimethoxy-pyridin-2-ylamino)-imidazo[1,2-b]pyridazin-6-yl]-benzoic acid]: the pIC50 was 6.58.

For the compound `COc1ccc(Nc2cc(-c3ccc(C(=O)NCCc4cc[nH]c(=O)c4)cc3)nn3ccnc23)nc1OC` [Example I-28, 4-[8-(5,6-Dimethoxy-pyridin-2-ylamino)-imidazo[1,2-b]pyridazin-6-yl]-N-[2-(2-oxo-1,2-dihydro-pyridin-4-yl)-ethyl]-benzamide], the pIC50 is 6.73. With `CCC1CCCN1c1cccc(Nc2cc(-c3ccccc3)nn3ccnc23)n1` (centres unmarked) [Example I-30, [6-(2-Ethyl-pyrrolidin-1-yl)-pyridin-2-yl]-(6-phenyl-imidazo[1,2-b]pyridazin-8-yl)-amine hydrochloride] the figure was 5.71; with `OCC1CCCN1c1cccc(Nc2cc(-c3ccccc3)nn3ccnc23)n1` (centres unmarked) [Example I-31, {1-[6-(6-Phenyl-imidazo[1,2-b]pyridazin-8-ylamino)-pyridin-2-yl]-pyrrolidin-2-yl}-methanol hydrochloride], 6.57; with `COc1ccc(Nc2cc(-c3ccc(C(=O)NCCc4ccn(C)c(=O)c4)cc3)nn3ccnc23)nc1OC` [Example I-33, 4-[8-(5,6-Dimethoxy-pyridin-2-ylamino)-imidazo[1,2-b]pyridazin-6-yl]-N-[2-(1-methyl-2-oxo-1,2-dihydro-pyridin-4-yl)-ethyl]-benzamide], 7.10. With `CC1(C)CCN(c2cccc(Nc3cc(-c4ccccc4)nn4ccnc34)n2)C1` [Example I-34, [6-(3,3-Dimethyl-pyrrolidin-1-yl)-pyridin-2-yl]-(6-phenyl-imidazo[1,2-b]pyridazin-8-yl)-amine], the pIC50 was 5.98. For `COCC1CCCN1c1cccc(Nc2cc(-c3ccccc3)nn3ccnc23)n1` (centres unmarked) [Example I-35, [6-(2-Methoxymethyl-pyrrolidin-1-yl)-pyridin-2-yl]-(6-phenyl-imidazo[1,2-b]pyridazin-8-yl)-amine hydrochloride], the pIC50 is 6.08. In the case of `COCC1CCCN1c1cccc(Nc2cc(-c3cccc(C(=O)O)c3)nn3ccnc23)n1` (centres unmarked) [Example I-36, 3-{8-[6-(2-Methoxymethyl-pyrrolidin-1-yl)-pyridin-2-ylamino]-imidazo[1,2-b]pyridazin-6-yl}-benzoic acid], the pIC50 was 6.46. For `CC1CCCN1c1cccc(Nc2cc(-c3ccc4[nH]ncc4c3)nn3ccnc23)n1` (centres unmarked) [Example I-37, [6-(1H-Indazol-5-yl)-imidazo[1,2-b]pyridazin-8-yl]-[6-(2-methyl-pyrrolidin-1-yl)-pyridin-2-yl]-amine] the value was 7.01; for `CC1CC(C)CN(c2cccc(Nc3cc(-c4cccc(C(=O)O)c4)nn4ccnc34)n2)C1` (centres unmarked) [Example I-38, 3-[8-(3,5-Dimethyl-3,4,5,6-tetrahydro-2H-[1,2′]bipyridinyl-6′-ylamino)-imidazo[1,2-b]pyridazin-6-yl]-benzoic acid], 6.04. For the compound `COc1cccc(-c2cc(Nc3cccc(N4CCCC4C)n3)c3nccn3n2)c1` (centres unmarked) [Example I-39, [6-(3-Methoxy-phenyl)-imidazo[1,2-b]pyridazin-8-yl]-[6-(2-methyl-pyrrolidin-1-yl)-pyridin-2-yl]-amine], the pIC50 is 6.53.

On to `CC1CCCN1c1cccc(Nc2cc(-c3cccc(C(=O)NCCO)c3)nn3ccnc23)n1` (centres unmarked) [Example I-40, N-(2-Hydroxy-ethyl)-3-{8-[6-(2-methyl-pyrrolidin-1-yl)-pyridin-2-ylamino]-imidazo[1,2-b]pyridazin-6-yl}-benzamide], for which the pIC50 was 7.37. For `CC(CO)NC(=O)c1cccc(-c2cc(Nc3cccc(N4CCCC4C)n3)c3nccn3n2)c1` (centres unmarked) [Example I-41, N-(2-Hydroxy-1-methyl-ethyl)-3-{8-[6-(2-methyl-pyrrolidin-1-yl)-pyridin-2-ylamino]-imidazo[1,2-b]pyridazin-6-yl}-benzamide] the value was 6.89; for `CC1CCCN1c1cccc(Nc2cc(-c3cccc(C(=O)N4CCOCC4)c3)nn3ccnc23)n1` (centres unmarked) [Example I-42, (3-{8-[6-(2-Methyl-pyrrolidin-1-yl)-pyridin-2-ylamino]-imidazo[1,2-b]pyridazin-6-yl}-phenyl)-morpholin-4-yl-methanone], 6.66. With `COc1ccc(Nc2cc(-c3ccccc3)nn3ccnc23)nc1OC` [Example I-44, (5,6-Dimethoxy-pyridin-2-yl)-(6-phenyl-imidazo[1,2-b]pyridazin-8-yl)-amine], the pIC50 is 7.32.
